According to ChEMBL document CHEMBL5518220, “The Discovery of 7-Isopropoxy-2-(1-methyl-2-oxabicyclo[2.1.1]hexan-4-yl)-N-(6-methylpyrazolo[1,5-a]pyrimidin-3-yl)imidazo[1,2-a]pyrimidine-6-carboxamide (BIO-7488), a Potent, Selective, and CNS-Penetrant IRAK4 Inhibitor for the Treatment of Ischemic Stroke” (J Med Chem, 2024):

Assays:
MDR1 (P-gp) = assay: Efflux ratio of apparent permeability across basolateral to apical side over apical to basolateral side in MDCK-MDR1 cells at 1 uM incubated for 120 mins by LC-MS/MS analysis; type: ADME, cell-based, Canis lupus familiaris; conditions: dog
[1] = Metabolic stability in rat liver microsomes assessed as intrinsic clearance; type: ADME, Microsome; conditions: read-out: CLH
[2] = molecular target: T1, Interleukin-1 receptor-associated kinase 4 (Homo sapiens, UniProt Q9NWZ3)
T1 sequence (Q9NWZ3 whole entry): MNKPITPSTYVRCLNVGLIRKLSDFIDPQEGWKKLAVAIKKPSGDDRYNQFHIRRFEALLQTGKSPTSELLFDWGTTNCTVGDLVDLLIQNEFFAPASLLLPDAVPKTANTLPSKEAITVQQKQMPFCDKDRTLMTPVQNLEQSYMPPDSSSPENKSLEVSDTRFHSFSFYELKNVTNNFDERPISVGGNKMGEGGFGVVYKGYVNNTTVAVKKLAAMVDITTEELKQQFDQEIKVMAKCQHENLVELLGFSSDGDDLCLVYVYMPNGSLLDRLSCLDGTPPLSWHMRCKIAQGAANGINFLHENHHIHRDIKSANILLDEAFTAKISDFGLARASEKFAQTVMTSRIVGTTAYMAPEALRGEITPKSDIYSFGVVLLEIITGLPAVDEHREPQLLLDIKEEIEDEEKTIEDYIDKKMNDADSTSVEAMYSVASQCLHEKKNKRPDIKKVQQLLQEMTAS

[3] = Metabolic stability in human liver microsomes assessed as intrinsic clearance; type: ADME, Microsome; conditions: read-out: CLH
[4] = molecular target: T2, Voltage-gated inwardly rectifying potassium channel KCNH2 (Homo sapiens, UniProt Q12809); assay: Displacement of [35S]-MK499 from hERG by […]; type: toxicity
[5] = Unbound brain-to-plasma concentration ratio in iv dosed rat measured at 4 to 24 hrs by LC-MS/MS analysis; type: ADME, organism-based; conditions: brain and plasma, time 4-24 hrs, read-out: K(p,uu,brain)
[6] = Lipophilicity, logD of compound in n-octanol and aqueous buffer at pH 7.4 by RP-HPLC method; type: physicochemical
[7] = Unbound clearance in rat at 1 mg/kg, iv by LC-MS/MS analysis; type: ADME, organism-based; conditions: in vivo
[8] = Clearance in rat at 1 mg/kg, iv by LC-MS/MS analysis; type: ADME, organism-based; conditions: in vivo
[9] = molecular target: T2, Voltage-gated inwardly rectifying potassium channel KCNH2; assay: Inhibition of hERG by patch clamp method; type: toxicity
[10] = Metabolic stability in rat hepatocytes assessed as intrinsic clearance; type: ADME, cell-based, Hepatocyte; conditions: read-out: CLH
[11] = Metabolic stability in human hepatocytes assessed as intrinsic clearance; type: ADME, cell-based, Hepatocyte; conditions: read-out: CLH

T2 sequence (Q12809 whole entry): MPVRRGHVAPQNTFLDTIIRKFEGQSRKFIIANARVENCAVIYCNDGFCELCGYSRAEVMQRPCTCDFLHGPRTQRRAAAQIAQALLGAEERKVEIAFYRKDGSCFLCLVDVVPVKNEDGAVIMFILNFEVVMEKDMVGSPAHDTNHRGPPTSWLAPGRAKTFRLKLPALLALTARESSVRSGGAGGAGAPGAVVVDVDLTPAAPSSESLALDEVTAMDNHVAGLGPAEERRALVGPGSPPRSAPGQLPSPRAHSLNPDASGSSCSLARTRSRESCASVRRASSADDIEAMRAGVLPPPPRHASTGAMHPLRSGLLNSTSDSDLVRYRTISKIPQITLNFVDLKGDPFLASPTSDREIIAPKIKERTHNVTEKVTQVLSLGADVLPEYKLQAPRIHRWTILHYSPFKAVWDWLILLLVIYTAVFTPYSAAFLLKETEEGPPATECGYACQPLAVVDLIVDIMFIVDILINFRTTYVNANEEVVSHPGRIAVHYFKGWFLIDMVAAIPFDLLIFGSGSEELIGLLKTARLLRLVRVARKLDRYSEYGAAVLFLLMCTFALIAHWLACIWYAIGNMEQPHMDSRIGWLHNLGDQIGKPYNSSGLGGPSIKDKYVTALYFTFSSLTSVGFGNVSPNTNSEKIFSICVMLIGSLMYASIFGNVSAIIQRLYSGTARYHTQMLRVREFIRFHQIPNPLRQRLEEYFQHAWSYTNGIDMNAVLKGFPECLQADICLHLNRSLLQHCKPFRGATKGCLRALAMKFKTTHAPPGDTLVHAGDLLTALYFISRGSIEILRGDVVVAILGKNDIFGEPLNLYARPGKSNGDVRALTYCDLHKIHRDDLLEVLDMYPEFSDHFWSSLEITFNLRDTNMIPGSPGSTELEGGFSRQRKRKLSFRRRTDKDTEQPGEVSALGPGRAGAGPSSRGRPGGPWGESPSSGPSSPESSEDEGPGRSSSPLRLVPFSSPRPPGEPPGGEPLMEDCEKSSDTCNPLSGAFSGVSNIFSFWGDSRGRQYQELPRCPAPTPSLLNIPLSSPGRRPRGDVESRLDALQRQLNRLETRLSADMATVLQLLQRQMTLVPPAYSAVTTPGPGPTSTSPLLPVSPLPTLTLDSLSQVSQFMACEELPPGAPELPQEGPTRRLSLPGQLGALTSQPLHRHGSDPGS

Row | Structure (SMILES) | efflux ratio at 2 h, 1 µM (MDR1 (P-gp)) | CLint scaled [1] [mL/min/kg] | IC50 [2] [nM] | CLint scaled [3] [mL/min/kg] | IC50 [4] [nM] | Kp uu [5] | logD [6] | CL free [7] [mL/min/kg] | clearance [8] [mL/min/kg] | IC50 [9] [nM] | CLint scaled [10] [mL/min/kg] | CLint scaled [11] [mL/min/kg]
1 | CCOc1cc2nc(CCCOC)cn2cc1NC(=O)c1cccc(C(F)F)n1 | 1.1 | 266 | 1.4 | 55 | – | – | – | – | – | – | – | –
2 | Cc1cnc2c(NC(=O)c3cn4cc(C56COC(C)(C5)C6)nc4c(F)c3OC(C)C)cnn2c1 | – | – | – | – | > 60000 | 0.7 | 2.5 | 28 | 2.6 | – | – | –
3 | CC(C)Oc1nc2nc(C34COC(C)(C3)C4)cn2cc1C(=O)Nc1cnn2cccnc12 | – | – | 0.4 | – | – | 0.2 | 2.1 | 64 | 10 | 19700 | – | –
4 | CC(C)Oc1cc2nc(C34COC(C)(C3)C4)cn2cc1C(=O)Nc1cnn2cccnc12 | – | – | – | – | – | 0.1 | 2.1 | 143 | 11 | > 30000 | – | –
5 | CCOc1cc2nc(C3CCOCC3)cn2cc1NC(=O)c1cccc(C(F)F)n1 | 2 | 40 | 0.6 | 27 | – | 0.3 | – | 1738 | 57 | – | 63 | 45
6 | CC(C)Oc1cc2nc(C3CCOCC3)cn2cc1NC(=O)c1cccc(C(F)F)n1 | – | 61 | 0.2 | 30 | – | 0.4 | – | 1788 | 22 | – | 37 | 75
7 | CCOc1cc2nc(C3(OC)CC3)cn2cc1NC(=O)c1cccc(C(F)F)n1 | 0.7 | 198 | – | 68 | – | – | – | – | – | – | – | –
8 | CCOc1cc2nc(C(C)(C)O)cn2cc1NC(=O)c1cccc(C(F)F)n1 | 5.5 | < 10.7 | – | < 4.7 | – | – | – | – | – | – | – | –
9 | CCOc1cc2nc(CCOC)cn2cc1NC(=O)c1cccc(C(F)F)n1 | 0.5 | 240 | – | 32 | – | – | – | – | – | – | – | –
